According to ChEMBL document CHEMBL1201862, “PubChem BioAssay data set” (2004):
Active and inactive are the calls of the source.

Legend:
[1] = molecular target: Beta-lactamase (Pseudomonas aeruginosa, UniProt Q79MP6);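 also: biochemical dose-response test of metallo-beta-lactamase enzyme inhibition, read out by epi-absorbance; purified recombinant IMP-1 metallo-beta-lactamase with nitrocefin as substrate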
[2] = molecular target: Beta-lactamase (Salmonella choleraesuis (strain SC-B67), UniProt Q5J463)
[3] = molecular target: T1, RNA-binding protein pos-1 (Caenorhabditis elegans, UniProt G5EF15); test: inhibitors of POS-1/mex-3 RNA binding, dose response, biochemical, fluorescence polarization (AID 1964);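 also: purified POS-1 fused to maltose binding protein made in E. coli; potency of compounds blocking POS-1 binding to fluorescent RNA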
T1 sequence (G5EF15 whole entry): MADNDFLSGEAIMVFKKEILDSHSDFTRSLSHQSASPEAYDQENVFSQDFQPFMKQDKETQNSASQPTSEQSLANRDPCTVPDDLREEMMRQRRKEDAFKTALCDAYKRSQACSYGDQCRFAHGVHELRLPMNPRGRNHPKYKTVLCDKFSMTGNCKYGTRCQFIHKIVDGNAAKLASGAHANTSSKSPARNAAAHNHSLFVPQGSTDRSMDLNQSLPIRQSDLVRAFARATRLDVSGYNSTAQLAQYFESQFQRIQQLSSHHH

[4] = molecular target: T2, Apoptotic protease-activating factor 1 (Homo sapiens, UniProt O14727); type: functional;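 as to EC50 Mean: caspase-3 cleavage of fluorogenic Rh110 DEVD substrate downstream of apoptosome activation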
T2 sequence (O14727 whole entry): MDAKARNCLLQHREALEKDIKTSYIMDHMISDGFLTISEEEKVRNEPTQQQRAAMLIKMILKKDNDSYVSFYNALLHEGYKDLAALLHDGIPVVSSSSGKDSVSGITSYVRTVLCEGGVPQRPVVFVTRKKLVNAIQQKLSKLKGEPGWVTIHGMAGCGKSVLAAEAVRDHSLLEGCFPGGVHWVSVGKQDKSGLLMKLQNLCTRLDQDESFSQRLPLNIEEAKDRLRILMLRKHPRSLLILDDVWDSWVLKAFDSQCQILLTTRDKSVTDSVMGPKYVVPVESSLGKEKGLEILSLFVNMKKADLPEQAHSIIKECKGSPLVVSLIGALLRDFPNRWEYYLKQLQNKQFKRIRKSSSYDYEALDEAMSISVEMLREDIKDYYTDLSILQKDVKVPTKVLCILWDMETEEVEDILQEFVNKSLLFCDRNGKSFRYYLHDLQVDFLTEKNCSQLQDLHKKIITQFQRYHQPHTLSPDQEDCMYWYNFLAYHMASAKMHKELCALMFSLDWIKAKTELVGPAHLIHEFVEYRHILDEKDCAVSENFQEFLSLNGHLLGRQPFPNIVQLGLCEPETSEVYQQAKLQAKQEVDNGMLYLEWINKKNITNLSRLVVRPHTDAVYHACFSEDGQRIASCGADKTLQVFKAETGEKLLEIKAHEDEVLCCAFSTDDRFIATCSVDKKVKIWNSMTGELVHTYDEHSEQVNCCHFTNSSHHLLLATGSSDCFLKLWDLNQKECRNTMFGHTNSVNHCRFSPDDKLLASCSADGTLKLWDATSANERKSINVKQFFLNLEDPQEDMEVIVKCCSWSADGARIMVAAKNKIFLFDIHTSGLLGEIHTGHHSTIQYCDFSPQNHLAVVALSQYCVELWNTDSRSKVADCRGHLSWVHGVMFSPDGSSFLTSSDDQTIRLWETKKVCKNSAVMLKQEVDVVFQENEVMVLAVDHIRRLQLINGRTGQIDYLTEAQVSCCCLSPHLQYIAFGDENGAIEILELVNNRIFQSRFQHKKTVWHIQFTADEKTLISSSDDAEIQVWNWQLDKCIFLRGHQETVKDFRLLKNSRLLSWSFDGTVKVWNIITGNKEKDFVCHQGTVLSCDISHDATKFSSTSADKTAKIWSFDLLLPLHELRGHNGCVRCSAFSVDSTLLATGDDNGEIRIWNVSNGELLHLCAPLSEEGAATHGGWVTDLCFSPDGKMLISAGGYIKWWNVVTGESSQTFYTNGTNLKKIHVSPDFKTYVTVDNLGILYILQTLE

[5] = molecular target: T3, Zinc finger protein mex-5 (Caenorhabditis elegans, UniProt Q9XUB2); test: MEX-5/TCR-2 RNA interaction inhibitors, dose response, biochemical, C. elegans, fluorescence polarization (AID 1960)
T3 sequence (Q9XUB2 whole entry): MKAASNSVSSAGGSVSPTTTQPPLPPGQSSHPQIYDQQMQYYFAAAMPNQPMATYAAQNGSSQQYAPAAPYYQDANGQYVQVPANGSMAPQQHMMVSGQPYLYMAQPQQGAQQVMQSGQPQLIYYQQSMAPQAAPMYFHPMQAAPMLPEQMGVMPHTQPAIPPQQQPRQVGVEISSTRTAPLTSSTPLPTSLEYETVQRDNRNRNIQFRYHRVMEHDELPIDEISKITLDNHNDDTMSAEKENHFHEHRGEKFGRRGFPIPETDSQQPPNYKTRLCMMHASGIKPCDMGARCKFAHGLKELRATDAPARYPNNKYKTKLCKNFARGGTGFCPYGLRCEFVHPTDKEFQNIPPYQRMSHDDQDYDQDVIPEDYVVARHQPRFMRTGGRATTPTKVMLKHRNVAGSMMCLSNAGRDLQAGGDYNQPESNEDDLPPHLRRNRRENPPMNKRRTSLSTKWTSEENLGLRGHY

[6] = molecular target: T4, Sentrin-specific protease 8 (Homo sapiens, UniProt Q96LD8); type: functional
T4 sequence (Q96LD8 whole entry): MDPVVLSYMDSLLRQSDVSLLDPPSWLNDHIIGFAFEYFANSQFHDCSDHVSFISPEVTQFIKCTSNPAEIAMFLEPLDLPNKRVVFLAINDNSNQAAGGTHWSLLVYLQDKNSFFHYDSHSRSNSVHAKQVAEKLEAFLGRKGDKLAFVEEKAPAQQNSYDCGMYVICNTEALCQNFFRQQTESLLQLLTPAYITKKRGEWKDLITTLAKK

[7] = molecular target: T4, Sentrin-specific protease 8; type: functional; remark: listed apart in the source
[8] = molecular target: Induced myeloid leukemia cell differentiation protein Mcl-1 (Homo sapiens, UniProt Q07820); type: functional
[9] = molecular target: T5, Low molecular weight phosphotyrosine protein phosphatase (Homo sapiens, UniProt P24666); type: functional; details: read-out: IC50_Mean;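 also: Dose-response confirmation assay measuring inhibition of LMPTP enzyme activity by fluorescence intensity read-out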
T5 sequence (P24666 whole entry): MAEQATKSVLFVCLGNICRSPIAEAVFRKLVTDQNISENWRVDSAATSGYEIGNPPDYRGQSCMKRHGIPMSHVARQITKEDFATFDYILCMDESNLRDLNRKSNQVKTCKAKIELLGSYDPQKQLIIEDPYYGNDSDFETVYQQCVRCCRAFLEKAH

[10] = molecular target: T6, Corticotropin-releasing factor receptor 2/Corticotropin-releasing factor-binding protein (Homo sapiens, UniProt P24387+Q13324); test: activators of CRF receptor 2 with binding protein – uHTS hits, confirmation (AID 602473); type: functional; details: read-out: EC50_Mean
T6 sequence (Q13324 whole entry): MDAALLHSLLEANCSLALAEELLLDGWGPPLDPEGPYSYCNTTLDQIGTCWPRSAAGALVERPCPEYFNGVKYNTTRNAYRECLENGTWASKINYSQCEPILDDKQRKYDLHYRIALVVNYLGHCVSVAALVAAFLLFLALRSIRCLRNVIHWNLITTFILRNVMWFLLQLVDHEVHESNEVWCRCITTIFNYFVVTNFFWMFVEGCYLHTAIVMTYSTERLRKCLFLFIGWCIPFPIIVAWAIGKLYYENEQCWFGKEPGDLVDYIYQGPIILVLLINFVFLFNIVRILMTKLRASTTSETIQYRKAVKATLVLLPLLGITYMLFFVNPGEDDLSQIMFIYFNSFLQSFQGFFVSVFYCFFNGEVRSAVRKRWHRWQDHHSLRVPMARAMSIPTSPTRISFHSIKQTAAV
T6 sequence (P24387 whole entry): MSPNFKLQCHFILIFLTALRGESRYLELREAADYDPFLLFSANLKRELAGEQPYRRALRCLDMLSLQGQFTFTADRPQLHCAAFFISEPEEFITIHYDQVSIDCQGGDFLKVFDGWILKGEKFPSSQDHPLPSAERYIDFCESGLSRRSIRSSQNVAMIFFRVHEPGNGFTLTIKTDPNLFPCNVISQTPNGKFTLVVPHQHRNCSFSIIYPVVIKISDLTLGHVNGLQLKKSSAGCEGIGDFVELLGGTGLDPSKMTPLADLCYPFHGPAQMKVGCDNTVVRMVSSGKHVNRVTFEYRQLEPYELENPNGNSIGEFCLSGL

[11] = Luminescence Cell-Based Dose Retest to Confirm Inhibitors of Cancer Stem Cells. [Related pubchem assays (depositor defined):AID2717, AID2721]; type: functional; details: Homo sapiens
[12] = CRF-BP/CRF-R2 complex antagonists, dose response, cell-based, uHTS hits, 384-well (AID 651639); type: functional, Homo sapiens; details: read-out: IC50_Mean
[13] = molecular target: T6, Corticotropin-releasing factor receptor 2/Corticotropin-releasing factor-binding protein; test: Dose Response confirmation of uHTS hits for small molecule antagonists of the CRF-binding protein and CRF-R2 receptor complex.; type: functional; details: read-out: IC50_Mean
[14] = control 3'UTR Renilla luciferase suppression, dose response, counter-screen for Shn3 inhibitor project, cell-based, Clone20-Shn3RL, cherry-picked (AID 624133); type: functional
[15] = molecular target: Protein Wnt-3a (Mus musculus, UniProt P27467); test: Wnt3a-driven reporter signaling inhibition, dose response, selectivity assay for Gli-SUFU antagonist project, Wnt-LIGHT cells, luminescence (AID 651570); type: functional; details: read-out: IC50_Mean;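 also: Wnt-LIGHT reporter cells stimulated with conditioned medium from Wnt3a-producing cells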
[16] = Shn3 3'UTR reporter inhibitors, dose response, cell-based, Clone20 osteoblasts, firefly luciferase, cherry-picked (AID 624132); type: functional;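 also: firefly luciferase luminescence from reporter carrying the Shn3 3'UTR in osteoblasts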
[17] = HepG2 cell cytotoxicity, dose response, cytotoxicity control for Shn3 inhibitor project, CellTiter-Glo, cherry-picked (AID 624134); type: functional, cell-based
[18] = molecular target: T7, Rac GTPase-activating protein 1 (Homo sapiens, UniProt Q9H0H5); test: MgcRacGAP GTPase-activating activity inhibitors, confirmation, biochemical, ADP Hunter fluorescence, primary and confirmatory (AID 624330); type: functional
T7 sequence (Q9H0H5 whole entry): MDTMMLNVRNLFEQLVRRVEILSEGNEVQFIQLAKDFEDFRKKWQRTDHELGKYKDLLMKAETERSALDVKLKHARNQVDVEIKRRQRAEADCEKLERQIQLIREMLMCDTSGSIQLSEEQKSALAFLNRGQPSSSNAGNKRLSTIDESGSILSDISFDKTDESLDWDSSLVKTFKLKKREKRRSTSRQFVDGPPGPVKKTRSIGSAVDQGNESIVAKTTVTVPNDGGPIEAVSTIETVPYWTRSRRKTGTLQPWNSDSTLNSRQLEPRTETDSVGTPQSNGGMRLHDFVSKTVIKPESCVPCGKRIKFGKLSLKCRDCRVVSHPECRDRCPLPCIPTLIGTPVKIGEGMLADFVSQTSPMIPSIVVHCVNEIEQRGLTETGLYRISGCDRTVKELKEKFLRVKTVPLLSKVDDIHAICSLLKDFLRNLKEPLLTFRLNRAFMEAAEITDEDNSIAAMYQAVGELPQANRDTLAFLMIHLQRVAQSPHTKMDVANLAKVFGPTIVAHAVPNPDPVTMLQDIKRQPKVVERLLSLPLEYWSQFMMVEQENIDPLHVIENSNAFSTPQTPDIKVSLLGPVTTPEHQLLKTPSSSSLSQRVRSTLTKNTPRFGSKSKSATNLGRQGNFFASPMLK

[19] = HeLa cell cytotoxicity, dose response, cytotoxicity control for MgcRacGAP inhibitor project (AID 624300); type: functional
[20] = AlphaScreen signal interference compounds, dose response, artefact control for ARNT-TACC3 interaction inhibitor project, biochemical, luminescence, cherry-pick (AID 651705); type: functional;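 also: AlphaScreen bead proximity signal that flags compounds interfering with the detection technology; potency reflects signal decrease which marks the compound as an assay artifact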
[21] = molecular target: T2, Apoptotic protease-activating factor 1; test: SAR analysis of small molecule Activators of Apaf-1 in a Fluorescent assay.; type: functional; details: read-out: EC50_Mean

Sequence of Protein Wnt-3a (P27467 whole entry): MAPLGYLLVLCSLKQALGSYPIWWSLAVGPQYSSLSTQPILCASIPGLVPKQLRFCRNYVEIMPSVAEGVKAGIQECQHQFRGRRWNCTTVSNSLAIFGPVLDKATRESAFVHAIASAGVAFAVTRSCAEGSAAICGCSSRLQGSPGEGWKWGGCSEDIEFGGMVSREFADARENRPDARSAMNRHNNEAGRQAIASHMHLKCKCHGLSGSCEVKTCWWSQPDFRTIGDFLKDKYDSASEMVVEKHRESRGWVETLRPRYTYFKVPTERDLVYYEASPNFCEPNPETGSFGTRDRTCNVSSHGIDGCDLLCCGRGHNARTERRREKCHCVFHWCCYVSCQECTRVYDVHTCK
Sequence of Beta-lactamase (Pseudomonas aeruginosa, UniProt Q79MP6) (Q79MP6 whole entry): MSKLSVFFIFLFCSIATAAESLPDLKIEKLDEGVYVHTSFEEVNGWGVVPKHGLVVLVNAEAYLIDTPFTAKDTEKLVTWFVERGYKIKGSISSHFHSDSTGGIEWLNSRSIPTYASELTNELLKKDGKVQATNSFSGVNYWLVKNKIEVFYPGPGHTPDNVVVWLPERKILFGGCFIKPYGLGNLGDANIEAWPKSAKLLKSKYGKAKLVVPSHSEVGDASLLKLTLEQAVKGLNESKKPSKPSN
Sequence of Beta-lactamase (Salmonella choleraesuis (strain SC-B67), UniProt Q5J463) (Q5J463 whole entry, the tested form may be a part): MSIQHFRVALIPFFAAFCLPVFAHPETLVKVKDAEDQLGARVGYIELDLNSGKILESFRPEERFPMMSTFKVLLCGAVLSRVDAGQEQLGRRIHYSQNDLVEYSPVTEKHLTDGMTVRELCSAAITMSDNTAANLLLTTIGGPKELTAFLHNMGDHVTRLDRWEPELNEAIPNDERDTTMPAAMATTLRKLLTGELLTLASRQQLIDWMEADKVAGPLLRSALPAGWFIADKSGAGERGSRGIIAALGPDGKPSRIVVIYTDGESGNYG
Sequence of Induced myeloid leukemia cell differentiation protein Mcl-1 (Q07820 whole entry): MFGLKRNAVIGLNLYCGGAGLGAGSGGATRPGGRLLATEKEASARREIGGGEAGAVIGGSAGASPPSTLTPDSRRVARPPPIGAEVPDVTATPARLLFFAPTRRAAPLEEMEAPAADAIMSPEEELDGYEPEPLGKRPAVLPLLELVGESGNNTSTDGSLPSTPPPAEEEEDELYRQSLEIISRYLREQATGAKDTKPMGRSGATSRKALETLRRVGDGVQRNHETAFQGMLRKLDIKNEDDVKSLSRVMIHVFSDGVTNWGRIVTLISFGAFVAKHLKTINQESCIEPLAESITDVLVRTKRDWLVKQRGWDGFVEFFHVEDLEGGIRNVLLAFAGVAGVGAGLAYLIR

O=Cc1ccc2cccc3c2c1NC(C(F)(F)F)=N3
IC50 [1]: 32.6 µM (inactive)
IC50 [2]: 27.9 µM (inactive)
EC50 [3]: 27.6 µM (active)
IC50 [4]: 9.2 µM (active)
EC50 [5]: 24.8 µM (active)

Nc1ccc(Cc2ccc(N)c(O)c2)cc1O
IC50 [6]: > 100 µM (inactive)
IC50 [7]: 27 µM (active)
IC50 [8]: > 54 µM (active)
IC50 [9]: 26.7 µM (inactive)

N#Cc1c(O)nc(SCc2cccc(Cl)c2)nc1-c1ccccc1
EC50 [10]: > 53 µM (inactive)
AC50 [11]: 4.86 µM (active)
IC50 [12]: > 20 µM (inactive)
IC50 [13]: < 0.368 µM (active)

O=c1c([N+](=O)[O-])c(NC2CCCCC2)c2ccccc2n1-c1ccccc1
EC50 [10]: > 53 µM (inactive)
IC50 [12]: > 20 µM (inactive)
IC50 [13]: 4.33 µM (active)

O=P(O)(O)c1cc(-c2ccccc2)oc1-c1ccccc1
IC50 [1]: 22.5 µM (inactive)
IC50 [2]: > 59.6 µM (inactive)

COc1ccc(CNCC(O)COc2cccc3c2OC(C)(C)C3)cc1 (stereo not drawn)
AC50 [14]: 1.57 µM (active)
IC50 [15]: 3.22 µM (active)
AC50 [16]: 1.68 µM (active)
AC50 [17]: 49.4 µM (active)

COc1ccc(CN(C)Cc2nc(Cc3cccc(F)c3)no2)c2cccnc12
IC50 [15]: 2.18 µM (active)

C=CCc1c(C)nc(-c2ccccc2)nc1Nc1ccc(O)cc1
IC50 [18]: 38.1 µM (active)
CC50 [19]: 100 µM (active)

Nc1nc(O)nc(Nc2ccccc2)c1N=O
AC50 [20]: 111 µM (active)

COc1ccc(C2=N[C@H](C(=O)O)CO2)cc1C(F)(F)F
EC50 [21]: > 100 µM (inactive)

CC(CC(F)(F)F)C(=O)O (stereo not drawn)
EC50 [21]: > 100 µM (inactive)
